This assay relates to Staphylococcus aureus. Description: Antimicrobial activity against Staphylococcus aureus. The format is functional.

The structures appear in SMILES notation. ≈ marks a conversion by molar mass, not a printed value. Residues, ends and D or L forms follow the SMILES beside them.

Two compounds from ChEMBL document CHEMBL1146442, “Kawaguchipeptin B, an antibacterial cyclic undecapeptide from the cyanobacterium Microcystis aeruginosa” (1997) can be followed below.

Compound `CC(C)=CC[C@@]12C[C@H]3C(=O)N[C@@H](CO)C(=O)N[C@@H]([C@@H](C)O)C(=O)N4CCC[C@H]4C(=O)N4[C@@H](C[C@@]5(CC=C(C)C)c6ccccc6N[C@@H]45)C(=O)N[C@H](CC(C)C)C(=O)N[C@@H](CC(N)=O)C(=O)NCC(=O)N[C@@H](CC(=O)O)C(=O)N[C@@H](CC(N)=O)C(=O)N[C@@H](CC(N)=O)C(=O)N3[C@H]1Nc1ccccc12` [KAWAGUCHIPEPTIN A] showed an MIC of 1 µg/mL (≈ 0.703 µM).
For `CC(C)C[C@@H]1NC(=O)[C@H](Cc2c[nH]c3ccccc23)NC(=O)[C@@H]2CCCN2C(=O)[C@H]([C@@H](C)O)NC(=O)[C@H](CO)NC(=O)[C@H](Cc2c[nH]c3ccccc23)NC(=O)[C@H](CC(N)=O)NC(=O)[C@H](CC(N)=O)NC(=O)[C@H](CC(=O)O)NC(=O)CNC(=O)[C@H](CC(N)=O)NC1=O` [KAWAGUCHIPEPTIN B] (HELM PEPTIDE1{D.N.N.W.S.T.P.W.L.N.G}$PEPTIDE1,PEPTIDE1,1:R1-11:R2$$$V2.0) the value was 1 µg/mL (≈ 0.778 µM).
